Source: paper PMC10718076, “1,2-Disubstituted bicyclo[2.1.1]hexanes as saturated bioisosteres of ortho-substituted benzene” (Chemical Science, 2023)
Values after ≈ are worked out from the molar mass of the structure shown. Where a name gives a salt, the structure may show the parent alone. Read-outs that look alike come from different tables or passages of the source.

How the values were obtained:
[1] = Kinetic solubility in phosphate-buffered saline, pH 7.4; type: physicochemical; details: for solubility kinetic at 2 h / solubility at 2 h: 25 °C, pH 7.4, aqueous buffer, kinetic from dmso stock; for solubility at 2 h: PBS solubility
Description: Analysis of Aqueous Solubility […]
compound (Ondansetron) were assessed for kinetic solubility in phosphate -buffered saline, pH 7.4.
Phosphate buffered saline, pH 7.4 (Sigma -Aldrich, USA; Cat #P3813) […]
MultiScreen HTS 96 Well Filter Plates (Millipore, Ireland; Cat # MSSLBPC10) […]
Matrix Multichannel Electronic Pipette 2-125 μL, 5-250 μL, 15-1250 μL (Thermo Scientific, USA; […]
Vacuum pump (Millipore, USA; Model # XX5500000)
The measurements were performed using SpectraMax Plus reader in UV -Vis mode. Acquisition and […]
The measurements were performed using SpectraMax Paradigm reader in UV-Vis mode.
Acquisition and analysis of the data were performed using SoftMax Pro v.5.4 (Molecular Devices) […]
Kinetic solubility assay was performed according to the Enamine’s aqueous solubility SOP. Briefly, using a 20 mM stock solution of the compound in 100% DMSO dilutions were prepared to a theoretical concentration of 400 μM in duplicates in phosphate-buffered saline pH 7.4 […]
compound dilutions in PBS were further allowed to equilibrate at 25 °C on a thermostatic shaker for two hours and then filtered through HTS filter plates using a vacuum manifold. The filtrates of test compounds were diluted 2-fold with acetonitrile with 2% DMSO before measuring.
In parallel, compound dilutions in 50% acetonitrile/PBS were prepared to theoretical concentrations […]
calibration curves. Ondansetron was used as reference compound to control proper assay performance. 200 μl of each sample was transferred to 96-well plate and measured in 230-550 nm range with 5 nm step. The effective range of this assay is approximately 2-400 μM and the […]
The concentrations of compounds in PBS filtrate are calculated using a dedicated Microsoft Excel calculation script. Proper absorbance wavelengths for calculations are selected for each compound manually based on absorbance maximums (absolute absorbance unit values for the minimum and maximum concentration points within the 0 – 3 OD range). Each final dataset is visually evaluated by the operator, and goodness of fit (R2) is calculated for each calibration curve. […]
samples were diluted 2-fold with acetonitrile containing internal standard and were analyzed using the HPLC system coupled with a tandem mass spectrometer. The effective range of this assay is […]

[2] = physchem
[3] = in vitro; details: both, human
[4] = tested on: Aspergillus niger (strain VURV-F 822); assay: Antifungal disk diffusion method; type: cell-based
Description: Antifungal activity of the synthetic compounds using disk diffusion methods The compounds were tested for plant pathogens Aspergillus niger (strain VURV-F 822), which was received from Culture collection of microorganisms of Crop Research Institute (Prague, Czech […]
The synthetic compounds' antifungal activity was evaluated using a disk diffusion assay for testing filamentous fungi (CLSI M51-A) and broth microdilution antifungal susceptibility testing (EUCAST E.DEF 7.3.1; CLSI M38-A2)
[CLSI M51-A. Method for Antifungal Disk Diffusion Susceptibility Testing of Nondermatophyte Filamentous Fungi; Approved Guideline.CLSI document M51-A. Wayne, PA:
Clinical and Laboratory Standards Institute; 2010. This method is standardized for Altenaria, Aspergillus, Bipolaris, Fusarium, order Mucorales, etc.]
[CLSI M38-A2. 2008. Reference method for broth dilution antifungal susceptibility testing of filamentous fungi, 2nd ed Approved standard M38 -A2 Clinical and Laboratory Standards Institute, […]
Antifungal disk diffusion method
The solutions of fungicides and their analogues were diluted in dimethyl sulfoxide (DMSO) to […]
mg/mL for each test component. Sterile paper disks (ASPECT, Ukraine) were soaked with 10 μl of a solution of the appropriate fungicide from the highest concentration to the lowest.
The fungal strains were cultured on Petri dishes with Saburo dextrose agar (Condalab, Spain) and incubated at 25 °C for 5 days. Sterile Dulbecco's phosphate -buffered saline (DPBS) with 0,1 % Tween 20 was used to cover colonies of fungus for obtained conidia l suspension. Suspension of conidia was adjusted to inoculums 2×10^5 conidia/mL by sterile DPBS.
For antifungal disk diffusion test we used square Petri dishes (FALCON A Corning Brand, USA). The conidial suspension (0.5 mL) was added to Petri dishes with Saburo dextrose agar. The suspension was evenly distributed over the surface of the nutrient medium with a glass spatula.
After the surface of the inoculated medium was dry, the disks with different concentrations of testing compounds were added to the Petri dishes. Each compound was tested in triplicate at different concentrations. Growth control was a disk with 10 μl of DMSO, which was used for test […]
Petri dishes incubated at 25 °C for 72 h. The test compounds at known concentrati on into contact with an inoculated medium then exert a growth-inhibiting effect then a clear zone (the zone of […]
inhibition) appears around the test product. The diameter of a clear zone around the well is […]
If the fungal strain is susceptible to the antifungal agent, then a zone of inhibition appears on the agar plate. If it is resistant to the test compound, then no zone is evident. The size of the zone of inhibition is usually related to the level of antifungal activity present in the compound – a larger […]
The growth rate of all strains for each concentration of test compounds was determined visually and compared with the growth of control.
Broth microdilution antifungal susceptibility testing
A 96-well CELLSTAR plate (sterile, flat-bottomed, polystyrene, transparent) was used to determine MIC by broth microdilution method. Also, dabble straight RPMI-1640 medium with 2% glucose (2x RPMI 2%G) was used for this method. Spore suspension for plate inoculation was prepared according to the method described above for the disc diffusion method.
The each well in the plate contained 49 μl of medium (2x RPMI 2%G), 50 μl of inoculum (prepared in DPBS) and 1 μl of the stock solution of the test substance. Positive control wells contained 50 μl medium and 50 μl inoculum, and sterile control wells contained 50 μl medium and […]
To determine the MIC by the microdilution method, a series of stock solutions of fungicides and their analogues in DMSO with the following concentrations were prepared: 3.2 mg/mL, 1.6 mg/mL, […]
1 μl of the stock solutions of the test substances were added to each well to obtain the following […]
Immediately after adding all the components to the plates, the optical density was measured at […]

[5] = Metabolic stability in human liver microsomes; details: both, liver microsomes (pooled); for remaining at 40 min, 2 µM: Mean of 2, 40 min
[6] = Table S5, injection 1, octanol/PBS pH 7.4
[7] = Table S5, injection 2, octanol/PBS pH 7.4
[8] = Table S5, injection 3, octanol/PBS pH 7.4
[9] = microsomes, pH 7.4, % Remaining, Mean of 2

## Cc1nc2c([nH]1)-c1ccccc1N(C(=O)c1ccc(NC(=O)c3ccccc3-c3ccccc3)cc1)CC2 [Conivaptan, conivaptan]
[1]
  solubility kinetic at 2 h: 5 µM (≈ 2.49 µg/mL)
[1]; pH 7.4, Incubation 1
  solubility at 2 h: 4 µM (≈ 1.99 µg/mL)
[1]; pH 7.4, Incubation 2
  solubility at 2 h: 7 µM (≈ 3.49 µg/mL)
[1]; pH 7.4, Mean
  solubility at 2 h: 5 µM (≈ 2.49 µg/mL)
[6]
  D: 1.98E+04
[7]
  D: 2.11E+04
[8]
  D: 1.99E+04
[2]; pH 7.4, LogD, pH 7.4
  logD at 1 h: 4.3
[3]; microsomes, pH 7.4
  microsomal CLint at 2 μM: 31 µL/min/mg
[3]; microsomes, pH 7.4, % Remaining without cofactor, Mean of 2
  remaining at 40 min, 2 µM: 101%
[3]; [9]
  remaining at 25 min, 2 µM: 67%
  remaining at 40 min, 2 µM: 60%
[3]; microsomes, pH 7.4, t1/2
  half-life at 2 µM: 54.4 min
[3]; pH 7.4, kel
  k el at 2 µM: 0.000217 s⁻¹

## O=C(Nc1ccccc1-c1ccc(Cl)cc1)c1cccnc1Cl [Boscalid, boscalid]
[1]
  solubility kinetic at 2 h: 11 µM (≈ 3.78 µg/mL)
[4]; Concentration 0.004 mg/mL, 0 = absence of antifungal activity, Boscalid, Fluxapyroxad, Bixafen marked st, read-out: Diameter of inhibition zone
  zone of inhibition at 4 µg/mL: 7.5 ± 1 mm
[4]; Concentration 0.008 mg/mL, 0 = absence of antifungal activity, read-out: Diameter of inhibition zone
  zone of inhibition at 8 µg/mL: 8.5 ± 1 mm
[4]; Concentration 0.016 mg/mL, 0 = absence of antifungal activity, read-out: Diameter of inhibition zone
  zone of inhibition at 16 µg/mL: 10.5 ± 1.5 mm
[4]; Concentration 0.03 mg/mL, 0 = absence of antifungal activity, (±)-29 marked st, read-out: Diameter of inhibition zone
  zone of inhibition at 30 µg/mL: 13.5 ± 2 mm
[4]; Concentration 0.06 mg/mL, 0 = absence of antifungal activity, Fluxapyroxad, Bixafen, (±)-29 marked st, read-out: Diameter of inhibition zone
  zone of inhibition at 60 µg/mL: 17.8 ± 2.25 mm
[4]; Concentration 0.12 mg/mL, (±)-28 marked st (static growth), read-out: Diameter of inhibition zone
  zone of inhibition at 120 µg/mL: 21.2 ± 2.25 mm
[4]; Concentration 0.25 mg/mL, (±)-28 marked st (static growth, secondary growth of mycelium), read-out: Diameter of inhibition zone
  zone of inhibition at 250 µg/mL: 20.2 ± 1 mm
[4]; Concentration 0.5 mg/mL, 10 μl per disk, read-out: Diameter of inhibition zone
  zone of inhibition at 500 µg/mL: 26 ± 2.5 mm
[4]; Concentration 1 mg/mL, 10 μl per disk, read-out: Diameter of inhibition zone
  zone of inhibition at 1000 µg/mL: 29 ± 1.5 mm
[4]; Concentration 2 mg/mL, 10 μl per disk, read-out: Diameter of inhibition zone
  zone of inhibition at 2000 µg/mL: 34.2 ± 0.75 mm
[4]; disk diffusion, small zones of inhibition with secondary mycelial growth, read-out: minimum inhibitory concentration
  MIC: 4 µg/mL (≈ 11.7 µM)
[6]
  D: 3.62E+03
[7]
  D: 2.86E+03
[8]
  D: 4.07E+03

## O=C(NC1CCN(CCCCC2(C(=O)NCC(F)(F)F)c3ccccc3-c3ccccc32)CC1)C1CC2CC1(c1ccc(C(F)(F)F)cc1)C2 (stereo not shown) [Compound 27]
[1]
  solubility kinetic at 2 h: 18 µM (≈ 12.6 µg/mL)
[1]; pH 7.4, Incubation 1
  solubility at 2 h: 18 µM (≈ 12.6 µg/mL)
[1]; pH 7.4, Incubation 2
  solubility at 2 h: 19 µM (≈ 13.3 µg/mL)
[1]; pH 7.4, Mean
  solubility at 2 h: 18 µM (≈ 12.6 µg/mL)
[6]
  D: 7.79E+03
[7]
  D: 7.46E+03
[8]
  D: 8.20E+03
[2]; pH 7.4, LogD, pH 7.4
  logD at 1 h: 3.89
[2]; pH 7.4, log D (7.4)
  logD at 1 h: 3.9
[5]; pH 7.4
  microsomal CLint at 2 µM: 186 µL/min/mg
[5]; pH 7.4, % Remaining without cofactor, no NADPH cofactor, Table S6, 1st batch
  remaining at 40 min, 2 µM: 106%
[5]; pH 7.4, % Remaining, Mean of 2, 7 min, Table S6, 1st batch
  remaining at […], 2 µM: 47%
[5]; pH 7.4, % Remaining, Mean of 2, 15 min, Table S6, 1st batch
  remaining at […], 2 µM: 20%
[5]; pH 7.4, % Remaining, Mean of 2, 25 min, Table S6, 1st batch
  remaining at 25 min, 2 µM: 9%
[5]; pH 7.4, % Remaining, Table S6, 1st batch
  remaining at 40 min, 2 µM: 5%
[5]; pH 7.4, kel, Table S6, 1st batch
  k el at 2 µM: 0.00128 s⁻¹
[5]; pH 7.4, t1/2, Table S6, 1st batch
  half-life at 2 µM: 9 min

## Cc1nccn1CC1CCc2c(c3ccccc3n2C)C1=O (stereo not shown) [Ondansetron, reference compound]
[1]; pH 7.4, Incubation 1
  solubility at 2 h: 126 µM (≈ 37 µg/mL)
[1]; pH 7.4, Incubation 2
  solubility at 2 h: 126 µM (≈ 37 µg/mL)
[1]; pH 7.4, Mean
  solubility at 2 h: 126 µM (≈ 37 µg/mL)
[1]; Table S1, 1st batch
  PBS solubility, pH 7.4, Incubation 1: 121 µM
  PBS solubility, pH 7.4, Incubation 2: 119 µM

## CC(C)NCC(O)COc1cccc2ccccc12 (racemic) [Propranolol, (+,-) Propranolol hydrochloride]
[3]; [9]
  remaining at 40 min, 2 µM: 68%
[3]; microsomes, pH 7.4, t1/2
  half-life at 2 µM: 70.9 min
[3]; s9, pH 7.4, t1/2
  half-life at 2 µM: ~356 min
[5]; pH 7.4, % Remaining, Table S7, 2st batch
  remaining at 40 min, 2 µM: 58%
